Assay results as given in patent US12410208B2, “(2-acetamidyl)thio-beta-D-galactopyranoside derivatives” (Idorsia Pharmaceuticals Ltd, priority 2020, dated 2025).
Like-named read-outs stand apart in the source and are kept apart here.

Legend:
[1] = target: human Gal-1 (hGal-1) (Homo sapiens, UniProt P09382); assay: Competitive binding assay: biotinylated hGal-1 binding to microplate-adsorbed asialofetuin (ASF), spectrophotometric; details: hGal-1 binding to asialofetuin; Table 15; R and S epimers of selected Examples also listed; read-out: IC50 (Galectin-1 inhibition)
How it was run: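 Biotinylated hGal-1 (300-1000 ng/mL) incubated with compound on asialofetuin-coated plates 3 hours at 4 °C, washed, then streptavidin-peroxidase (80 ng/mL) 1 hour at 4 °C. ABTS substrate read spectrophotometrically; IC50 reported as mean of several measurements.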

[2] = target: biotinylated human Gal-3 (hGal-3) (Homo sapiens, UniProt P17931); assay: Competitive binding assay: biotinylated hGal-3 binding to microplate-adsorbed asialofetuin (ASF), spectrophotometric
How it was run: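 Competitive binding of biotinylated hGal-3 to plate-adsorbed asialofetuin was measured with serially diluted compounds over 3 h at 4° C. Bound protein was detected with streptavidin-peroxidase and ABTS substrate by absorbance. IC50 values are means of several measurements.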

[3] = Gal-3 inhibition, Table 5, read-out: IC50
[4] = Table 8, hGal-3, read-out: IC50 (Gal-3 inhibition)
[5] = Gal-3 inhibition, Table 4, read-out: IC50
[6] = Table 11, hGal-3, read-out: IC50 (Gal-3 inhibition)
[7] = Table 12, hGal-3, read-out: IC50 (Gal-3 inhibition)

Sequence of biotinylated human Gal-3 (hGal-3) (P17931 whole entry): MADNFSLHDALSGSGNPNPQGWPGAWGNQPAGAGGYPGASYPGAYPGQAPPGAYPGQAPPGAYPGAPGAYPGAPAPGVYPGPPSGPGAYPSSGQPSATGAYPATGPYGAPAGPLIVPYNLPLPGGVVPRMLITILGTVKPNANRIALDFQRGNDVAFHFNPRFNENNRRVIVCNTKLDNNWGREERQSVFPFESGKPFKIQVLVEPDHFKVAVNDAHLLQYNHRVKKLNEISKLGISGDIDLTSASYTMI
Sequence of human Gal-1 (hGal-1) (P09382 whole entry): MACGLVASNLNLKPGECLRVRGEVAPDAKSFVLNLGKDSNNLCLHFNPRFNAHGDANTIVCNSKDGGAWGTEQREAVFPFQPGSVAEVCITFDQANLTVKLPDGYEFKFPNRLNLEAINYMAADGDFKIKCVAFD

| Molecule | IC50 [1] [nM] | also measured |
| --- | --- | --- |
| O=C(C(S[C@@H]1O[C@H](CO)[C@H](O)[C@H](n2cc(-c3cc(F)c(F)c(F)c3)nn2)[C@H]1O)C1(O)CCCCC1)N1CCCCC1 (stereo partly drawn) [Example 2.39.208., 2-(((2S,3R,4S,5R,6R)-3,5-Dihydroxy-6-(hydroxymethyl)-4-(4-(3,4,5-trifluorophenyl)-1H-1,2,3-triazol-1-yl)tetrahydro-2H-pyran-2-yl)thio)-2-(1-hydroxycyclohexyl)-1-(piperidin-1-yl)ethan-1-one] | 70 | IC50 [2, 3]: 20 nM |
| CN(CC(F)(F)F)C(=O)[C@@H](S[C@@H]1O[C@H](CO)[C@H](O)[C@H](n2cc(-c3cc(F)c(F)c(F)c3)nn2)[C@H]1O)C1(O)CCCCC1 [Example 2.39.219S., (S)-2-(((2S,3R,4S,5R,6R)-3,5-Dihydroxy-6-(hydroxymethyl)-4-(4-(3,4,5-trifluorophenyl)-1H-1,2,3-triazol-1-yl)tetrahydro-2H-pyran-2-yl)thio)-2-(1-hydroxycyclohexyl)-N-methyl-N-(2,2,2-trifluoroethyl)acetamide] | 100 | IC50 [2, 3]: 60 nM |
| 2-(1,1-Difluoro-6-hydroxyspiro[2.5]octan-6-yl)-1-(4,4-difluoropiperidin-1-yl)-2-(((2S,3R,4S,5R,6R)-5-hydroxy-6-(hydroxymethyl)-3-methoxy-4-(4-(3,4,5-trifluorophenyl)-1H-1,2,3-triazol-1-yl)tetrahydro-2H-pyran-2-yl)thio)ethan-1-one [Example 2.73.226.I.] | 150 | IC50 ([2]; Table 13, hGal-3, read-out: IC50 (Gal-3 inhibition)): 100 nM |
| CN(CCC1CCOCC1)C(=O)C(S[C@@H]1O[C@H](CO)[C@H](O)[C@H](n2cc(-c3cc(F)c(F)c(F)c3)nn2)[C@H]1O)C1(O)CCOCC1 (stereo partly drawn) [Example 2.41.216., 2-(((2S,3R,4S,5R,6R)-3,5-Dihydroxy-6-(hydroxymethyl)-4-(4-(3,4,5-trifluorophenyl)-1H-1,2,3-triazol-1-yl)tetrahydro-2H-pyran-2-yl)thio)-2-(4-hydroxytetrahydro-2H-pyran-4-yl)-N-methyl-N-(2-(tetrahydro-2H-pyran-4-yl)ethyl)acetamide] | 380 | IC50 [2, 5]: 60 nM |
| CCN(C)C(=O)C(S[C@@H]1O[C@H](CO)[C@H](O)[C@H](n2cc(-c3cccc(F)c3)nn2)[C@H]1O)C1(O)CCOCC1 (stereo partly drawn) [Example 1.41.203., N-Ethyl-2-(((2S,3R,4S,5R,6R)-4-(4-(3-fluorophenyl)-1H-1,2,3-triazol-1-yl)-3,5-dihydroxy-6-(hydroxymethyl)tetrahydro-2H-pyran-2-yl)thio)-2-(4-hydroxytetrahydro-2H-pyran-4-yl)-N-methylacetamide] | 160 | IC50 [2, 6]: 130 nM |
| CN(Cc1cn(C)cn1)C(=O)C(S[C@@H]1O[C@H](CO)[C@H](O)[C@H](n2cc(-c3cc(F)c(F)c(F)c3)nn2)[C@H]1O)C1(O)CCOCC1 (stereo partly drawn) [Example 2.41.215., 2-(((2S,3R,4S,5R,6R)-3,5-Dihydroxy-6-(hydroxymethyl)-4-(4-(3,4,5-trifluorophenyl)-1H-1,2,3-triazol-1-yl)tetrahydro-2H-pyran-2-yl)thio)-2-(4-hydroxytetrahydro-2H-pyran-4-yl)-N-methyl-N-((1-methyl-1H-imidazol-4-yl)methyl)acetamide] | 370 | IC50 [2, 5]: 60 nM |
| CCN(CC)C(=O)C(S[C@@H]1O[C@H](CO)[C@H](O)[C@H](n2cc(-c3cc(F)c(F)c(F)c3)nn2)[C@H]1O)C1(O)CCOCC1 (stereo partly drawn) [Example 2.41.202., 2-(((2S,3R,4S,5R,6R)-3,5-Dihydroxy-6-(hydroxymethyl)-4-(4-(3,4,5-trifluorophenyl)-1H-1,2,3-triazol-1-yl)tetrahydro-2H-pyran-2-yl)thio)-N,N-diethyl-2-(4-hydroxytetrahydro-2H-pyran-4-yl)acetamide] | 110 | IC50 [2, 5]: 50 nM |
| CCN(CC1CCOCC1)C(=O)C(S[C@@H]1O[C@H](CO)[C@H](O)[C@H](n2cc(-c3cc(F)c(F)c(F)c3)nn2)[C@H]1O)C1(O)CCOCC1 (stereo partly drawn) [Example 2.41.214., 2-(((2S,3R,4S,5R,6R)-3,5-Dihydroxy-6-(hydroxymethyl)-4-(4-(3,4,5-trifluorophenyl)-1H-1,2,3-triazol-1-yl)tetrahydro-2H-pyran-2-yl)thio)-N-ethyl-2-(4-hydroxytetrahydro-2H-pyran-4-yl)-N-((tetrahydro-2H-pyran-4-yl)methyl)acetamide] | 120 | IC50 [2, 5]: 30 nM |

Second part, led by results:

| IC50 [1] [nM] | Molecule | also measured |
| --- | --- | --- |
| 140 | 2-(4,4-Difluoro-1-hydroxycyclohexyl)-2-(((2S,3R,4S,5R,6R)-3,5-dihydroxy-6-(hydroxymethyl)-4-(4-(3,4,5-trifluorophenyl)-1H-1,2,3-triazol-1-yl)tetrahydro-2H-pyran-2-yl)thio)-N-ethyl-N-methylacetamide [Example 2.44.203.] | IC50 [2, 3]: 60 nM |
| 100 | CCN(C)C(=O)C(S[C@@H]1O[C@H](CO)[C@H](O)[C@H](n2cc(-c3cc(F)c(F)c(F)c3)nn2)[C@H]1O)C1(O)CCN(C(=O)OC)CC1 (stereo partly drawn) [Example 2.50.203., Methyl 4-(1-(((2S,3R,4S,5R,6R)-3,5-dihydroxy-6-(hydroxymethyl)-4-(4-(3,4,5-trifluorophenyl)-1H-1,2,3-triazol-1-yl)tetrahydro-2H-pyran-2-yl)thio)-2-(ethyl(methyl)amino)-2-oxoethyl)-4-hydroxypiperidine-1-carboxylate] | IC50 [2, 4]: 70 nM |
| 6540 | CN(C(=O)[C@H](S[C@@H]1O[C@H](CO)[C@H](O)[C@H](n2cc(-c3cc(F)c(F)c(F)c3)nn2)[C@H]1O)C1(O)CCOCC1)C1COC1 [Example 2.41.235R., (R)-2-(((2S,3R,4S,5R,6R)-3,5-Dihydroxy-6-(hydroxymethyl)-4-(4-(3,4,5-trifluorophenyl)-1H-1,2,3-triazol-1-yl)tetrahydro-2H-pyran-2-yl)thio)-2-(4-hydroxytetrahydro-2H-pyran-4-yl)-N-methyl-N-(oxetan-3-yl)acetamide] | IC50 [2, 3]: 2400 nM |
| 4430 | CCN(C)C(=O)[C@H](S[C@@H]1O[C@H](CO)[C@H](O)[C@H](n2cc(-c3cc(F)c(F)c(F)c3)nn2)[C@H]1O)C1(O)CCN(C(=O)NC2CC2)CC1 [Example 2.49.203R., (R)-N-Cyclopropyl-4-(1-(((2S,3R,4S,5R,6R)-3,5-dihydroxy-6-(hydroxymethyl)-4-(4-(3,4,5-trifluorophenyl)-1H-1,2,3-triazol-1-yl)tetrahydro-2H-pyran-2-yl)thio)-2-(ethyl(methyl)amino)-2-oxoethyl)-4-hydroxypiperidine-1-carboxamide] | IC50 [2, 4]: 2650 nM |
| 130 | CCN(C)C(=O)C(S[C@@H]1O[C@H](CO)[C@H](O)[C@H](n2cc(-c3cc(F)cc(Cl)c3)nn2)[C@H]1O)C1(O)CCOCC1 (stereo partly drawn) [Example 13.41.203., 2-(((2S,3R,4S,5R,6R)-4-(4-(3-Chloro-5-fluorophenyl)-1H-1,2,3-triazol-1-yl)-3,5-dihydroxy-6-(hydroxymethyl)tetrahydro-2H-pyran-2-yl)thio)-N-ethyl-2-(4-hydroxytetrahydro-2H-pyran-4-yl)-N-methylacetamide] | IC50 [2, 6]: 80 nM |
| 140 | CCN(C)C(=O)C(S[C@@H]1O[C@H](CO)[C@H](O)[C@H](n2cc(-c3cc(F)c(Cl)c(Cl)c3)nn2)[C@H]1O)C1(O)CCOCC1 (stereo partly drawn) [Example 17.41.203., 2-(((2S,3R,4S,5R,6R)-4-(4-(3,4-Dichloro-5-fluorophenyl)-1H-1,2,3-triazol-1-yl)-3,5-dihydroxy-6-(hydroxymethyl)tetrahydro-2H-pyran-2-yl)thio)-N-ethyl-2-(4-hydroxytetrahydro-2H-pyran-4-yl)-N-methylacetamide] | IC50 [2, 6]: 40 nM |
| 230 | CN(C)C(=O)C(S[C@@H]1O[C@H](CO)[C@H](O)[C@H](n2cc(-c3cc(F)c(F)c(F)c3)nn2)[C@H]1O)C1(O)CCC(F)(F)CC1 (mixture of isomers) [Example 2.44.201., 2-(4,4-Difluoro-1-hydroxycyclohexyl)-2-(((2S,3R,4S,5R,6R)-3,5-dihydroxy-6-(hydroxymethyl)-4-(4-(3,4,5-trifluorophenyl)-1H-1,2,3-triazol-1-yl)tetrahydro-2H-pyran-2-yl)thio)-N,N-dimethylacetamide] | IC50 [2, 3]: 100 nM |
| 170 | CO[C@@H]1[C@@H](n2cc(-c3cc(F)c(F)c(F)c3)nn2)[C@@H](O)[C@@H](CO)O[C@H]1SC(C(=O)N(C)C1COC1)C1(O)CCC(F)(F)CC1 (stereo partly drawn) [Example 2.44.243.I., 2-(4,4-Difluoro-1-hydroxycyclohexyl)-2-(((2S,3R,4S,5R,6R)-5-hydroxy-6-(hydroxymethyl)-3-methoxy-4-(4-(3,4,5-trifluorophenyl)-1H-1,2,3-triazol-1-yl)tetrahydro-2H-pyran-2-yl)thio)-N-methyl-N-(oxetan-3-yl)acetamide] | IC50 [2, 7]: 110 nM |
| 150 | CO[C@@H]1[C@@H](n2cc(-c3cc(F)c(F)c(F)c3)nn2)[C@@H](O)[C@@H](CO)O[C@H]1SC(C(=O)N(C)C1CCOCC1)C1(O)CCC(F)(F)CC1 (stereo partly drawn) [Example 2.44.213.I., 2-(4,4-Difluoro-1-hydroxycyclohexyl)-2-(((2S,3R,4S,5R,6R)-5-hydroxy-6-(hydroxymethyl)-3-methoxy-4-(4-(3,4,5-trifluorophenyl)-1H-1,2,3-triazol-1-yl)tetrahydro-2H-pyran-2-yl)thio)-N-methyl-N-(tetrahydro-2H-pyran-4-yl)acetamide] | IC50 [2, 7]: 70 nM |
